Experimental findings from PubChem BioAssay (NCI) are described below.

Test systems include MDA-MB-231 breast; SNB-19 CNS; K-562 leukemia; HT29 colon; HS 578T breast; MDA-N; HCT-15 colon; IGROV1 ovarian; UACC-62 melanoma; T-47D breast.
Assay in all cases: growth of human tumour cells (NCI), 48 h

Structures can show the parent of a compound that is named as a salt.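 These data come from cells grown in 96-well plates and exposed to compound for 48 hours at five concentrations. At the TGI there is no net growth.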 *1 amine or outer side, *2 acyl side, *3 side chain or, on linkers, in order; H or OH if unused. Where a SMILES comes first, the peptide text is derived from it. [ ]: non-standard residue; d: D form. The star is where a group is joined. X31 = CC(=O)N(C)SCC(N[*:1])C(=O)[*:2]; X47 = CC(=O)N(C)SCC(N*)/C(O)=N\O; Cbz = O=C(OCc1ccccc1)*; Boc = CC(C)(C)OC(=O)*; Tfa = O=C(C(F)(F)F)*; Bz = O=C(c1ccccc1)*; Bn = c1ccc(C*)cc1; For = O=C* Bounds are passed on as bounds.

With `CCOC(=O)CN1C(=O)c2c(c(C)n(-c3ccccc3)c2C)C1=O`, the TGI in the assay with MDA-MB-231 breast, in the assay on SNB-19 CNS, with K-562 leukemia, in the assay on HT29 colon, in the assay with HS 578T breast and in the assay with MDA-N was more than 100 µM each time. Also, the TGI in the assay with HCT-15 colon, with IGROV1 ovarian, in the assay with UACC-62 melanoma and in the assay on T-47D breast was more than 100 µM each time.
On to `CC1(C)[C@H](C(=O)O)N2C(=O)[C@@H](NS(=O)(=O)c3ccc([N+](=O)[O-])cc3)[C@H]2S1(=O)=O`, for which the TGI in the assay with MDA-MB-231 breast, with SNB-19 CNS, in the assay with K-562 leukemia, in the assay on HT29 colon, in the assay on HS 578T breast and with MDA-N was more than 100 µM each time. Also, the TGI in the assay on HCT-15 colon, with IGROV1 ovarian, in the assay with UACC-62 melanoma and with T-47D breast was more than 100 µM in each case.
For `O=C(CN1CCN(Cc2ccccc2)CC1)c1ccc2[nH]c(=O)oc2c1`, the TGI in the assay with MDA-MB-231 breast, in the assay with SNB-19 CNS, in the assay on K-562 leukemia, in the assay on HT29 colon, in the assay on HS 578T breast and in the assay with MDA-N was more than 100 µM throughout. In addition, the TGI in the assay with HCT-15 colon, with IGROV1 ovarian, in the assay on UACC-62 melanoma and with T-47D breast was more than 100 µM in each case.
Turning to `CS(=O)(=O)c1ccc(/C=N/NC(N)=S)cc1`, the TGI in the assay on MDA-MB-231 breast, in the assay on SNB-19 CNS, in the assay on K-562 leukemia, in the assay with HT29 colon, in the assay with HS 578T breast and in the assay with MDA-N was more than 100 µM each time. Also, the TGI in the assay on HCT-15 colon, with IGROV1 ovarian, in the assay with UACC-62 melanoma and with T-47D breast was more than 100 µM in each case.
Turning to `CC1=NCCN=C(C)C1N=Nc1ccc2nc(C)[nH]c2c1`, the TGI with MDA-MB-231 breast came out at 31.2 µM; in the assay on SNB-19 CNS it was 28.7 µM; in the assay on K-562 leukemia it was 20.1 µM; with HT29 colon, 50.9 µM; with HS 578T breast, 57.5 µM; with MDA-N, 29.3 µM. Besides, the TGI is more than 100 µM in the assay on HCT-15 colon, 70.7 µM with IGROV1 ovarian, 31.5 µM with UACC-62 melanoma and 47.5 µM in the assay on T-47D breast.
Regarding `O=C(O)c1cc2ccccc2c(N=Nc2ccccc2)c1O`, the TGI in the assay on MDA-MB-231 breast was more than 100 µM; in the assay on SNB-19 CNS, 79.6 µM; in the assay on K-562 leukemia, more than 100 µM; in the assay on HT29 colon it was 54.8 µM; in the assay with HS 578T breast it was more than 100 µM; in the assay on MDA-N, 58.4 µM. The TGI with HCT-15 colon was more than 100 µM; in the assay with IGROV1 ovarian, more than 100 µM; with UACC-62 melanoma, 35.2 µM; with T-47D breast, more than 100 µM.
With `COc1ccc(/C=C2\CCCC(CN(C)C)C2=O)cc1` (stereo not given), the TGI came to 8.61 µM in the assay with MDA-MB-231 breast; 18 µM with SNB-19 CNS; 6.79 µM with K-562 leukemia; 3.47 µM with HT29 colon; 10.9 µM in the assay on HS 578T breast; 8.5 µM in the assay on MDA-N. In addition, the TGI came to 1.7 µM with HCT-15 colon, 7.51 µM in the assay on IGROV1 ovarian, 4.13 µM in the assay with UACC-62 melanoma and 7.72 µM in the assay with T-47D breast.
In the case of `CCC1=NC(N/N=C/c2ccco2)=N/C1=C\c1ccccc1O`, the TGI in the assay on MDA-MB-231 breast, in the assay with SNB-19 CNS, in the assay on K-562 leukemia, in the assay on HT29 colon, in the assay on HS 578T breast and in the assay on MDA-N was more than 100 µM throughout. In addition, the TGI was 42.7 µM in the assay on HCT-15 colon, 93.1 µM in the assay on IGROV1 ovarian, 53.6 µM in the assay with UACC-62 melanoma and more than 100 µM with T-47D breast.
On to `CC(=O)N(C)SCC(NC(=O)C(Cc1ccccc1)NC(=O)OCc1ccccc1)C(=O)NC(Cc1ccccc1)C(=O)NC(Cc1cn(C=O)c2ccccc12)C(=O)NC(CCCCNC(=O)OCc1ccccc1)C(=O)NC(C(=O)NC(CSN(C)C(C)=O)/C(O)=N\O)C(C)OCc1ccccc1` (stereo not given) (Cbz-F[X31]FW(For)K(Cbz)T(Bn)-X47; configuration not given here), for which the TGI in the assay with MDA-MB-231 breast, in the assay with SNB-19 CNS, in the assay on K-562 leukemia, in the assay on HT29 colon, in the assay on HS 578T breast and with MDA-N was more than 100 µM in each case. Moreover, the TGI with HCT-15 colon, with IGROV1 ovarian, in the assay on UACC-62 melanoma and with T-47D breast was more than 100 µM in each case.
Turning to `O=C(O)CC(NC(=O)C(F)(F)F)C(=O)NC(Cc1ccc(O)cc1)C(=O)O` (stereo not drawn) (Tfa-Asp-Tyr-OH; configuration not given here), the TGI in the assay with MDA-MB-231 breast, in the assay on SNB-19 CNS, in the assay on K-562 leukemia, with HT29 colon, in the assay on HS 578T breast and with MDA-N was more than 50 µM throughout. Besides, the TGI in the assay on HCT-15 colon, with IGROV1 ovarian, with UACC-62 melanoma and in the assay on T-47D breast was more than 50 µM each time.
In the case of `CC(NC(=O)C(Cc1ccc(OC(=O)c2ccccc2)cc1)NC(=O)OC(C)(C)C)C(=O)NC(Cc1ccccc1)C(=O)NCC(N)=O` (stereo not given) (Boc-Y(Bz)AFG-NH2; configuration not given here), the TGI in the assay with MDA-MB-231 breast worked out at 36.5 µM; with SNB-19 CNS it was 36.5 µM; with K-562 leukemia it was 57.4 µM; with HT29 colon it was 34.4 µM; in the assay with HS 578T breast it was 47 µM; in the assay with MDA-N, 79.4 µM. Besides, the TGI with HCT-15 colon was more than 100 µM; with IGROV1 ovarian it was 40.7 µM; in the assay with UACC-62 melanoma, 37.3 µM; with T-47D breast, 50.7 µM.
Regarding `CC(=O)OC1=c2ccccc2=C(O)C2C1C=NN2C(C)=O` (stereo not given), the TGI in the assay on MDA-MB-231 breast, in the assay on SNB-19 CNS, in the assay on K-562 leukemia, in the assay on HT29 colon, in the assay on HS 578T breast and in the assay on MDA-N was more than 100 µM in each case. Besides, the TGI in the assay with HCT-15 colon, with IGROV1 ovarian, in the assay on UACC-62 melanoma and in the assay with T-47D breast was more than 100 µM each time.
As for `C=CCN1CCC(OC(=O)C(O)(C#CC)C2CCCC2)CC1` (stereo not given), the TGI in the assay with MDA-MB-231 breast, in the assay with SNB-19 CNS, in the assay with K-562 leukemia, in the assay on HT29 colon, in the assay on HS 578T breast and in the assay on MDA-N was more than 100 µM throughout. Further, the TGI in the assay with HCT-15 colon, in the assay on IGROV1 ovarian, in the assay on UACC-62 melanoma and with T-47D breast was more than 100 µM each time.
